Some test systems named below: NCI-H460 lung; HT29 colon; MALME-3M melanoma; A549 NSCLC; SNB-75 CNS; UACC-257 melanoma; COLO 205 colon; CAKI-1 renal; SF-295 CNS; EKVX NSCLC.
Common to all, as to assay: NCI-60 cell line screen, 48 h

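Five compound concentrations were applied to cells in 96-well plates for 48 hours; endpoints were derived by simple linear interpolation of the resulting dose-response curve. TGI is the concentration that stops growth completely.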 A value given as a limit tells only on which side of the number the result lay.

On to `Cc1ccc(C)c(COCCOCn2c(=O)[nH]c(=O)c3cc(Br)ccc32)c1`, for which the TGI with NCI-H460 lung, with HT29 colon, in the assay with MALME-3M melanoma, in the assay with A549 NSCLC, with SNB-75 CNS and with UACC-257 melanoma was > 100 µM in each case. Further, the TGI with COLO 205 colon, in the assay with CAKI-1 renal, in the assay with SF-295 CNS and in the assay on EKVX NSCLC was > 100 µM in each case.
Take `COC(=O)C1C(O)C(C)C(O)OC1C(C)C(O)C(C)/C=C\C=C(/C)C(=O)Nc1c(C)c(OC(C)=O)c2c(c1O)C(=O)C(C)=C1OCOC(/C(C)=C/C(C)=O)=C12` (stereo not given): the TGI with NCI-H460 lung is 26.5 µM; in the assay with HT29 colon it was 26.5 µM; in the assay with MALME-3M melanoma, 24.8 µM; in the assay with A549 NSCLC it was 35.3 µM; in the assay with SNB-75 CNS, 29.1 µM; in the assay with UACC-257 melanoma, 23.7 µM. The TGI with COLO 205 colon is 20.6 µM; in the assay with CAKI-1 renal, 34 µM; in the assay on SF-295 CNS, 26 µM; in the assay on EKVX NSCLC it was 20.5 µM.
Consider `Cc1cccc(C(=O)O)c1CC1NCCC2c3ccccc3NC12` (stereo not given), for which the TGI with NCI-H460 lung, in the assay on HT29 colon, in the assay on MALME-3M melanoma, in the assay on A549 NSCLC, with SNB-75 CNS and in the assay on UACC-257 melanoma was > 100 µM in each case. In addition, the TGI in the assay on COLO 205 colon, in the assay on CAKI-1 renal, in the assay with SF-295 CNS and in the assay with EKVX NSCLC was > 100 µM each time.
For the compound `COc1ccccc1/C=C/c1nc2ccccc2o1`, the TGI in the assay with NCI-H460 lung, in the assay on HT29 colon, in the assay with MALME-3M melanoma, in the assay on A549 NSCLC, in the assay with SNB-75 CNS and with UACC-257 melanoma was > 10 µM throughout. For the same compound, the TGI in the assay with COLO 205 colon, in the assay on CAKI-1 renal, in the assay on SF-295 CNS and with EKVX NSCLC was > 10 µM each time.

The values are drawn from PubChem BioAssay (NCI).
